Source: US8735406B2, “8-oxodihydropurine derivative” (Dainippon Sumitomo Pharma Co., Ltd., priority 2009, dated 2014)
pIC50: −log10 of the molar value. Read-outs that look alike come from different tables or passages of the source.

Target: T1, FAAH (Rattus norvegicus, UniProt P97612)
T1 construct: Preparation of Rat Brain Membranes Preparations (FAAH Enzyme Solution); from tissue; host or cells: rat cerebrum (brain membrane preparation)
T1 sequence (P97612 1-579): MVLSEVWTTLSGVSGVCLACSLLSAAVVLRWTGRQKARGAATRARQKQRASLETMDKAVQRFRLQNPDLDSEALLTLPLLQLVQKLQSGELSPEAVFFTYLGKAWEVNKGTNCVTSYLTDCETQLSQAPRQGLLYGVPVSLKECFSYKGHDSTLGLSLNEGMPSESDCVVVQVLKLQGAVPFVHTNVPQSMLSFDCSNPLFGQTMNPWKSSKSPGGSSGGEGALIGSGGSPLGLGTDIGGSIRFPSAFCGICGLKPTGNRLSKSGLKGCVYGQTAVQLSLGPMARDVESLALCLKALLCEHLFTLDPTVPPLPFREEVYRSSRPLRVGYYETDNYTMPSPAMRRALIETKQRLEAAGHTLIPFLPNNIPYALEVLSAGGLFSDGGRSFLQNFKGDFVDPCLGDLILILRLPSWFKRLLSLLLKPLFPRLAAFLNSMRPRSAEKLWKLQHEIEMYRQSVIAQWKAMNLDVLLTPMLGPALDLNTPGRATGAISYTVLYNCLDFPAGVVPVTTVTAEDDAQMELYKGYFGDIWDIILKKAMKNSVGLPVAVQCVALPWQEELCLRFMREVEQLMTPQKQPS
Test: Determination of FAAH inhibitory activity in rat (rat brain membrane preparations, [3H]-anandamide hydrolysis)
Format: biochemical
Settings: for pIC50: test substance 0.1 nM to 1 μM; for inhibition at 0.1 µM: read-out: FAAH Inhibition, Inhibition Rate at 100 nM
How it was run: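 Compounds tested from 0.1 nM to 1 μM to derive IC50 against FAAH hydrolysis in rat brain membrane preparations (100 μg/mL). A 10-min 37 °C preincubation was followed by 10 min with [3H]-anandamide (2 nM) mixed with 2 μM unlabelled anandamide. Radioactive ethanolamine was extracted into the water/methanol layer and counted.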

[1] = rat brain membrane preparations, read-out: FAAH Inhibition IC50
[2] = rat brain membrane preparations, 100 nM test substance

| Compound | pIC50 [1] | inhibition at 0.1 µM [%] | inhibition at 0.1 µM [2] [%] | pIC50 (FAAH Inhibition IC50, rat brain membrane preparations) |
| --- | --- | --- | --- | --- |
| COc1cccc(-c2ncc3c(n2)n(C)c(=O)n3C(=O)N2CCN(Cc3ccc(Cl)cc3)CC2)c1 [Example 86, 7-{[4-(4-Chlorobenzyl)piperazin-1-yl]carbonyl}-2-(3-methoxyphenyl)-9-methyl-7,9-dihydro-8H-purine-8-one] | 7.66 | 96 |  |  |
| COc1cccc(-c2ncc3c(n2)n(C)c(=O)n3C(=O)N2CCN(Cc3cccc(Cl)c3)CC2)c1 [Example 87, 7-{[4-(3-Chlorobenzyl)piperazin-1-yl]carbonyl}-2-(3-methoxyphenyl)-9-methyl-7,9-dihydro-8H-purine-8-one] | 8.00 | 99 |  |  |
| COc1cccc(-c2ncc3c(n2)n(C)c(=O)n3C(=O)N(C)Cc2ccccc2)c1 [Example 88, N-Benzyl-2-(3-methoxyphenyl)-N,9-dimethyl-8-oxo-8,9-dihydro-7H-purine-7-carboxamide] | 7.37 |  | 93 |  |
| COc1cccc(-c2ncc3c(n2)n(C)c(=O)n3C(=O)N2CCN(Cc3ccc(C(F)(F)F)cc3)CC2)c1 [Example 89, 2-(3-Methoxyphenyl)-9-methyl-7-({4-[4-(trifluoromethyl)benzyl]piperazin-1-yl}carbonyl)-7,9-dihydro-8H-purine-8-one] | 7.36 | 92 |  |  |
| COc1cccc(-c2ncc3c(n2)n(C)c(=O)n3C(=O)N(C)CCOc2cccc(Cl)c2)c1 [Example 90, N-[2-(3-Chlorophenoxy)ethyl]-2-(3-methoxyphenyl)-N,9-dimethyl-8-oxo-8,9-dihydro-7H-purine-7-carboxamide] | 8.70 |  | 105 |  |
| COc1cccc(-c2ncc3c(n2)n(C)c(=O)n3C(=O)N(C)CCOc2ccc(F)cc2)c1 [Example 91, N-[2-(4-Fluorophenoxy)ethyl]-2-(3-methoxyphenyl)-N,9-dimethyl-8-oxo-8,9-dihydro-7H-purine-7-carboxamide] | 9.00 |  | 103 |  |
| COc1cccc(-c2ncc3c(n2)n(C)c(=O)n3C(=O)N(C)CCc2ccc(C(F)(F)F)cc2)c1 [Example 92, 2-(3-Methoxyphenyl)-N,9-dimethyl-8-oxo-N-{2-[4-(trifluoromethyl)phenyl]ethyl}-8,9-dihydro-7H-purine-7-carboxamide] | 8.40 |  | 103 |  |
| COc1ccc(CCN(C)C(=O)n2c(=O)n(C)c3nc(-c4cccc(OC)c4)ncc32)cc1 [Example 93, 2-(3-Methoxyphenyl)-N-[2-(4-methoxyphenyl)ethyl]-N,9-dimethyl-8-oxo-8,9-dihydro-7H-purine-7-carboxamide] | 8.30 | 100 |  |  |
| COc1cccc(-c2ncc3c(n2)n(C)c(=O)n3C(=O)N2CC=C(/C=C/c3ccc(Cl)cc3)CC2)c1 [Example 94, 7-({4-[(E)-2-(4-Chlorophenyl)ethenyl]-3,6-dihydropyridin-1(2H)-yl}carbonyl)-2-(3-methoxyphenyl)-9-methyl-7,9-dihydro-8H-purine-8-one] | 8.15 |  | 101 |  |
| COc1cccc(-c2ncc3c(n2)n(C)c(=O)n3C(=O)N2CC=C(/C=C/c3ccc(F)cc3)CC2)c1 [Example 95, 7-({4-[(E)-2-(4-Fluorophenyl)ethenyl]-3,6-dihydropyridin-1(2H)-yl}carbonyl)-2-(3-methoxyphenyl)-9-methyl-7,9-dihydro-8H-purine-8-one] | 8.52 |  | 101 |  |
| COc1cccc(-c2ncc3c(n2)n(C)c(=O)n3C(=O)N2CCC(CCc3ccc(F)cc3)CC2)c1 [Example 96, 7-({4-[2-(4-Fluorophenyl)ethyl]piperidin-1-yl}carbonyl)-2-(3-methoxyphenyl)-9-methyl-7,9-dihydro-8H-purine 8-one] | 8.22 |  | 100 |  |
| COc1cccc(-c2ncc3c(n2)n(C)c(=O)n3C(=O)N2CCN(C3CCCCC3)CC2)c1 [Example 97, 7-[(4-Cyclohexylpiperazin-1-yl)carbonyl]-2-(3-methoxyphenyl)-9-methyl-7,9-dihydro-8H-purine-8-one] | 7.43 |  | 99 |  |
| COc1cccc(-c2ncc3c(n2)n(C)c(=O)n3C(=O)N2CCN(C3CCCC3)CC2)c1 [Example 98, 7-[(4-Cyclopentylpiperazin-1-yl)carbonyl]-2-(3-methoxyphenyl)-9-methyl-7,9-dihydro-8H-purine-8-one] | 7.40 |  | 93 |  |
| COc1cccc(-c2ncc3c(n2)n(C)c(=O)n3C(=O)N2CCN(CC(F)(F)F)CC2)c1 [Example 99, 2-(3-Methoxyphenyl)-9-methyl-7-{[4-(2,2,2-trifluoroethyl)piperazin-1-yl]carbonyl}-7,9-dihydro-8H-purine-8-one] | 8.15 |  | 100 |  |
| COc1cccc(-c2ncc3c(n2)n(C)c(=O)n3C(=O)N2CCN(CCC3CCCCC3)CC2)c1 [Example 100, 7-{[4-(2-Cyclohexylethyl)piperazin-1-yl]carbonyl}-2-(3-methoxyphenyl)-9-methyl-7,9-dihydro-8H-purine-8-one] | 8.05 |  | 100 |  |
| COc1cccc(-c2ncc3c(n2)n(C)c(=O)n3C(=O)N2CCC(COc3ccccc3)CC2)c1 [Example 101, 2-(3-Methoxyphenyl)-9-methyl-7-{[4-(phenoxymethyl)piperidin-1-yl]carbonyl}-7,9-dihydro-8H-purine-8-one] | 8.15 |  | 102 |  |
| COc1cccc(-c2ncc3c(n2)n(C)c(=O)n3C(=O)N2CCC(=Cc3ccc(Cl)cc3)CC2)c1 [Example 102, 7-{[4-(4-Chlorobenzylidene)piperidin-1-yl]carbonyl}-2-(3-methoxyphenyl)-9-methyl-7,9-dihydro-8H-purine-8-one] | 8.30 |  | 101 |  |
| COc1cccc(-c2ncc3c(n2)n(C)c(=O)n3C(=O)N(C)CCCl)c1 [Example 103, N-(2-Chloroethyl)-2-(3-methoxyphenyl)-N,9-dimethyl-8-oxo-8,9-dihydro-7H-purine-7-carboxamide] |  | 100 |  | 8.15 |
| COc1cccc(-c2ncc3c(n2)n(C)c(=O)n3C(=O)N(C)CCc2nc(-c3ccccc3)no2)c1 [Example 104, 2-(3-Methoxyphenyl)-N,9-dimethyl-8-oxo-N-[2-(3-phenyl-1,2,4-oxadiazol-5-yl)ethyl]-8,9-dihydro-7H-purine-7-carboxamide] | 8.52 |  | 101 |  |
| COc1cccc(-c2ncc3c(n2)n(C)c(=O)n3C(=O)N(C)CCc2ccc(Cl)c(Cl)c2)c1 [Example 105, N-[2-(3,4-Dichlorophenyl)ethyl]-2-(3-methoxyphenyl)-N,9-dimethyl-8-oxo-8,9-dihydro-7H-purine-7-carboxamide] | 9.00 |  | 108 |  |
| COc1cccc(-c2ncc3c(n2)n(C)c(=O)n3C(=O)N(C)CCC2=CCCCC2)c1 [Example 106, N-[2-(Cyclohex-1-en-1-yl)ethyl]-2-(3-methoxyphenyl)-N,9-dimethyl-8-oxo-8,9-dihydro-7H-purine-7-carboxamide] | 9.00 |  | 110 |  |
| CCCN(C)C(=O)n1c(=O)n(C)c2nc(-c3cccc(OC)c3)ncc21 [Example 107, 2-(3-Methoxyphenyl)-N,9-dimethyl-8-oxo-N-propyl-8,9-dihydro-7H-purine-7-carboxamide] | 8.15 |  | 101 |  |
| COc1cccc(-c2ncc3c(n2)n(C)c(=O)n3C(=O)N(C)CC(C)C)c1 [Example 108, 2-(3-Methoxyphenyl)-N,9-dimethyl-N-(2-methylpropyl)-8-oxo-8,9-dihydro-7H-purine-7-carboxamide] | 7.66 |  | 94 |  |
| COc1cccc(-c2ncc3c(n2)n(C)c(=O)n3C(=O)N(C)CCC2CCCCC2)c1 [Example 109, N-(2-Cyclohexylethyl)-2-(3-methoxyphenyl)-N,9-dimethyl-8-oxo-8,9-dihydro-7H-purine-7-carboxamide] | 8.70 |  | 103 |  |
| COc1cccc(-c2ncc3c(n2)n(C)c(=O)n3C(=O)N(C)CCc2ccc(Cl)cc2Cl)c1 [Example 110, N-[2-(2,4-Dichlorophenyl)ethyl]-2-(3-methoxyphenyl)-N,9-dimethyl-8-oxo-8,9-dihydro-7H-purine-7-carboxamide] | 8.52 |  | 103 |  |
| COc1cccc(-c2ncc3c(n2)n(C)c(=O)n3C(=O)N(C)CCN2CCOCC2)c1 [Example 111] | 7.22 |  | 46 |  |
| COc1cccc(-c2ncc3c(n2)n(C)c(=O)n3C(=O)N2CCC(/C=C/c3ccc(Cl)cc3)CC2)c1 [Example 112, 7-({4-[(E)-2-(4-Chlorophenyl)ethenyl]piperidin-1-yl}carbonyl)-2-(3-methoxyphenyl)-9-methyl-7,9-dihydro-8H-purine-8-one] | 8.40 |  | 103 |  |
